Data reported in patent US20190298717A1 (BOARD OF REGENTS, THE UNIVERSITY OF TEXAS SYSTEM, priority 2016, published 2019).
Entries after “also recorded” stand apart in the source; their conditions may differ. Where two headings read alike, the source gives them in different places.

Experiments:
C. elegans [1] = system: C. elegans
Experimental: C. elegans strains and maintenance. Animals were grown and maintained using standard C. elegans conditions at 20° C. on NGM plates and were fed E. coli strain HB101. N2 worms were used as wild-type and the following mutants and transgenic strains were used from Caenorhabditis Genetics Center (CGC, University of Minnesota): EU1 skn-1(zu67) (IV)/nT1[unc-?(n754); let-?], EU31 skn-1(zu135))/nT1[unc-?(n754); let-?], CL2166 dvIs19 [gst-4p::GFP::NLS], CL691 dvIs19 [gst-4p::GFP::NLS], skn-1(zu67)/nT [unc-?(n754) let-?], LG333 skn-1(zu135)/nT1[qIs51]; ldIs7[skn-1b/c::GFP], LG348 skn-1(zu135)/nT1[qIs51]; geIs9 [gpa-4p::skn-1b::GFP+rol-6(su1006)], LG357 skn-1(zu135)/nT1[qIs51]; geIs10 [ges-1p(long)::skn-1c::GFP+rol-6(su1006)], and LD1 ldIs7 [skn-1b/c::GFP+rol-6(su1006)].
Lifespan analysis. All lifespan assays were performed at 20° C. according to standard protocols described elsewhere. […] Worms were transferred to fresh plates every day after reaching adulthood, and every two days after reaching 10 days of age. Prodding test as described above was used to count the number of dead worms. Survival curve was plotted using Prism 7 and the significance of the curves calculated by Log-rank (Mantel-Cox) test.
RNA Interference. Synchronized L1 larvae were placed on NGM plates containing 1 mM IPTG and fed HT115 bacterial strain containing scramble or skn-1 RNAi plasmids. All the experiments were done at 20° C.

SH-SY5Y cells [2] = experiment: MTT cell viability under H2O2 induced stress; assay type: cell-based, human; conditions: 100 μM H2O2 24 h; 10 and 25 μM compound; listed as hydralazine
Experimental: To generate intracellular aldehydes, the inventors treated human neuroblastoma cell line (SH-SY5Y) with 100 μM hydrogen peroxide (H2O2) for 24 h. Carbonyl groups were quantified using 2,4-DNPH (dinitrophenylhydrazine) assay.
Cell Viability and Cytotoxicity Assay. Cell growth was analyzed using the MTT cell viability assay. Briefly, at the end of incubation/treatment, MTT reagent was diluted in culture medium and aliquoted into each well. After incubation for 2 hours, the medium was aspirated and DMSO was aliquoted into each well to disrupt the cells and dissolve the intracellular MTT dyes. Absorbance was read at 570 nm wavelength in a 96-well plate reader. Cell toxicity was detected using a LDH cell toxicity assay kit (Promega, Fitchburg Wis.). This is a coupled enzymatic assay that detects a visible color signal initially described by Nachlas et. al. The reagent contained excess concentrations of lactate and NAD+as substrates to drive the LDH reaction and produce NADH. In the presence of diaphorase, NADH drives the enzyme-catalyzed conversion of iodonitro-tetrazolium violet to a red formazan product. Briefly, DMEM medium was withdrawn from each well of the plate after treatment and briefly centrifuged to get rid of floating cells or cell debris. […] The absorbance was read at 490 nm in a 96-well plate reader. […]

[3] = system: Nrf2 transcriptional activity (ARE)
Experimental: Trx1 reduces the cysteine residues critical for binding of Nrf2 to AREs (Hansen et al., 2004).
Nrf2 Transcriptional Activity Assay. The transcriptional activity of Nrf2 was determined using a luciferase-based transcription activation approach. A vector carrying a […] controlled luciferase gene (firefly luciferase) and a vector carrying the control luciferase (Renilla luciferase) from an ARE reporter kit (BPS Bioscience, San Diego, Calif.) was transiently co-transfected into the cells using Lipofectamine reagents (Thermo Fisher, Waltham, Mass.). […] Briefly, the cells were incubated with firefly luciferase substrate for 10 minutes prior to measurement luminescence in a 96-well luminescence plate reader. Subsequently, the Renilla luciferase was measured after the addition of Dual-Glo Stop & Glo reagent into the wells with a 10-minute incubation. The ratio of luminescence from firefly and Renilla was calculated to normalize and compare the Nrf2 transcriptional activity.

C. elegans [4] = experiment: Rotenone stress test in worms; assay type: in vivo
Text: The inventors again used rotenone to elicit PD-like changes.
Rotenone stress test. […] After 3 days young adult worms were transferred to fresh NGM plates either preloaded with rotenone alone or rotenone plus any of the abovementioned compounds. Every worm was subjected to prodding test with a worm pick every day. A worm was scored as dead when not responding to three repeated proddings. Survival curve was plotted using Prism 7.

SH-SY5Y cells [5] = experiment: Mitochondrial membrane potential (TMRE); assay type: cell-based, human; conditions: hydralazine 0, 10, 20 μM; isoniazid 20 μM
Experimental: (§1) Cells were stained by TMRE to tag active mitochondria. Florescence signal was quantified by Flow Jo software. […] ATP levels were measured by bioluminescent detection of luciferase activity. All data are presented normalized to cell number.
(§2) The mitochondrial membrane potential was measured as an indicator of cellular energetics and ATP content.

SH-SY5Y cells [6] = conditions: 0, 10, 20 μM, 3 days
Experimental: as §1, §2

[7] = system: HEK293 overexpressing mutated tau-RD (P301L/V337M), Clone 9; conditions: 10 μM, 48 h
Experimental: Two monoclonal cell lines of HEK293 overexpressing mutated tau-RD (repetitive domain; P301L/V337M) were selected; 1) Clone 1: used as control expressing truncated tau from amino acid 244 to 372, with P301L/V337M mutations which produces soluble non-toxic tau, and 2) Clone 9: which generates an aggregated form of tau (11). Three parameters were measured: cell viability, NAD, and ATP content.

[8] = system: neuropeptide Y, synaptotagmin; conditions: data not shown
Text: Neuronal plasticity, defined as the brain's ability to form new neural connections, allows the neurons to compensate for injury and disease and to adjust their activities in response to new situations or changes in their environment.

Nrf2 pathway = conditions: SH-SY5Y, 10 μM, 24 h
Experimental: Cell culture in SILAC media and Lysate Preparation. SHY-SY5Y cells were grown in Dulbecco's modified Eagle's medium containing either unlabeled L-Proline, L-arginine (Argo) and L-lysine (Lyso) or L-Proline, heavy isotope-labeled L-arginine-^13C6^14N4(Arg^10) and L-lysine-^13C6-^15N2 (Lys^8) (Cambridge Isotope Laboratories, Inc.) supplemented with 10% dialyzed fetal bovine serum (Thermo Fischer, Waltham, Mass.). […] After treatment, cells were harvested by trypisinization, washed three times with cold PBS and lysed in a buffer containing 6M Urea, 2M Thio-urea, 1% SDS and 100 mM Tris/HCl, pH 8.0 with protease (Thermo Fischer, Waltham, Mass.) and phosphatase inhibitors. After incubation for 15 min at RT and sonication, the samples were clarified by centrifugation for 15 min at 20,000×g. Protein content was determined using the 660 nM protein assay kit (Thermo Fisher, Waltham, Mass.) according to the manufacturer's instructions.
Protein Digestion and Peptide Fractionation. […] The mix digest (300 μg) was then fractionated into six fractions via strong cation exchange (SCX). […]
Mass Spectrometry for SILAC. All the fractions were analyzed using a Q-Exactive HF mass spectrometer (Thermo Electron, Burlingame, Calif.) coupled to an Ultimate 3000 RSLCnano HPLC systems (Thermo Electron, Sunnyvale Calif.). […]

NNc1nncc2ccccc12 [Hydralazine]
Variation Compared to Control (%) (C. elegans [1]; EU1 skn-1(zu67), 100 μM Hyd (printed 100 IJM), FIG. 7G): +11.7%
Variation Compared to Control (%) (C. elegans [1]; EU31 skn-1(zu135), 100 μM Hyd (printed 100 IlM), FIG. 7G): +3.3%
Variation Compared to Control (%) (C. elegans [1]; LG348 (geIs9, skn-1b), 100 μM Hyd (printed 100 IJM), FIG. 7H): +10.8%
Variation Compared to Control (%) (C. elegans [1]; LG357 (geIs10, skn-1c), 100 μM Hyd (printed 100 FM), FIG. 7H): +2.7%
Variation Compared to Control (%) (C. elegans [1]; N2, 10 μM Hyd (printed 10 IJM), FIG. 7E): +4.82%
lifespan extension (C. elegans [1]; N2, 100 μM): ≤ 25%
Variation Compared to Control (%) (C. elegans [1]; N2, 100 μM Hyd (printed 100IJM), FIG. 7E): +24.4%
Variation Compared to Control (%) (C. elegans [1]; N2, 200 μM Hyd (printed 200 IlM), FIG. 7E): +13.3%
Variation Compared to Control (%) (C. elegans [1]; N2-Scramble RNAi, 100 μM (printed 100 IJM), FIG. 7F): +22.2%
Variation Compared to Control (%) (C. elegans [1]; N2-skn-1 RNAi, 100 μM, FIG. 7F): −5.4%
pro-longevity effect in skn-1(zu135) mutant and skn-1 knockdown worms (C. elegans [1]; in vivo): completely lost
extension of medium and maximum lifespan (C. elegans [1]; worms treated with hydralazine): at least 25%
cell viability under H2O2 induced cell death (MTT) (SH-SY5Y cells [2]): significantly improved; also recorded: provided protection in a dose-dependent manner
ARE binding elevation ([3]; SH-SY5Y): 2 fold
luciferase activity compared to untreated cells ([3]; SH-SY5Y with ARE-luciferase reporter, 24 h, both concentrations): 2.0±0.2 folds
protection against rotenone-induced death (C. elegans [4]; 100 μM pretreatment, rotenone 50 μM): protected from rotenone; also recorded: significantly protected
protection against rotenone in skn-1(zu135) mutant compared to N2 (C. elegans [4]; skn-1(zu135)): sharply decreased
mitochondrial membrane potential / mitochondrial function (TMRE) (SH-SY5Y cells [5]): improves mitochondrial function in a dose dependent manner
total ATP content (SH-SY5Y cells [6]): elevated ATP level in a concentration dependent manner
cell viability, NAD, and ATP content of Clone 9 [7]: shows improvement in all three aspects
increase of expression of neuropeptide Y [8]: 3 fold
increase of expression of synaptotagmin [8]: ~2.5 fold
Nrf2 pathway activation, IPA Z score (Nrf2 pathway): 0.156
